Values of other authors, collected in patent US20250257300A1, “MICROTITER-PLATE-BASED HIGH THROUGHPUT PERFUSION BIOREACTOR” (THE GEORGE WASHINGTON UNIVERSITY, priority 2022, published 2025).

System: Pseudomonas aeruginosa biofilms
Conditions: Pseudomonas aeruginosa biofilms growing on urinary catheters vs planktonic cells

NC[C@H]1O[C@H](O[C@H]2[C@H](O)[C@@H](O[C@H]3O[C@H](CO)[C@@H](O)[C@H](N)[C@H]3O)[C@H](N)C[C@@H]2N)[C@H](N)C[C@@H]1O [tobramycin]
resistance of biofilms to tobramycin relative to planktonic cells: 1000 times
